Consider five molecules from US20230143604A1, “QW DOSING OF GIP RECEPTOR AGONIST PEPTIDE COMPOUNDS AND USES THEREOF” (TAKEDA PHARMACEUTICAL COMPANY LIMITED, priority 2020, published 2023).

Molecules are shown by their SMILES. Starred links: 1 amine or outer side, 2 acyl side, 3 side chain; linkers in the order of their positions; H or OH if unused. Positions of bridges follow the written chain, without caps; N, C: chain ends. Non-standard residues stand in square brackets, D forms with d. Residues, ends and D or L forms follow the SMILES beside them. Groups on a side chain read outwards from the residue. Chains are numbered I, II in the order given. *: point of attachment. C18 diacid = O=C(O)CCCCCCCCCCCCCCCCC(=O)*; γGlu = O=C(O)[C@H](CCC(=O)[*:2])N[*:1]; NMeY = CN[C@@H](Cc1ccc(O)cc1)C(=O)O; AEEA = NCCOCCOCC(=O)O; Aib = CC(C)(N)C(=O)O

The data set is described as follows: physchem. A digest of the protocol: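 3 mg of peptide treated with 100 μL portions of 200 mM phosphate buffer pH 7.4, sonicating/vortexing up to 1 min, with further buffer added until fully dissolved. Solubility then quantified by HPLC.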

Usually solubility stands for the concentration that dissolves in the medium under given conditions. A low value points to a poorly soluble substance. `CC[C@H](C)[C@H](NC(=O)[C@H](CO)NC(=O)[C@H](Cc1ccc(O)cc1)NC(=O)[C@H](CC(=O)O)NC(=O)[C@H](CO)NC(=O)[C@@H](NC(=O)[C@H](Cc1ccccc1)NC(=O)[C@@H](NC(=O)CNC(=O)[C@H](CCC(=O)O)NC(=O)C(C)(C)NC(=O)[C@@H](N)Cc1ccc(O)cc1)[C@@H](C)O)[C@@H](C)CC)C(=O)N[C@@H](C)C(=O)N[C@@H](CC(C)C)C(=O)N[C@@H](CC(=O)O)C(=O)N[C@@H](CCCCN)C(=O)NC(C)(C)C(=O)N[C@@H](CCCCNC(=O)COCCOCCNC(=O)COCCOCCNC(=O)CC[C@H](NC(=O)CCCCCCCCCCCCCCCCC(=O)O)C(=O)O)C(=O)N[C@@H](CCC(N)=O)C(=O)N[C@@H](C)C(=O)N[C@@H](CC(=O)O)C(=O)N[C@@H](Cc1ccccc1)C(=O)N[C@H](C(=O)N[C@@H](CCC(=O)O)C(=O)N[C@@H](Cc1c[nH]c2ccccc12)C(=O)N[C@@H](CC(C)C)C(=O)N[C@@H](CC(C)C)C(=O)N[C@@H](C)C(=O)N[C@@H](CCC(N)=O)C(=O)N[C@@H](CCCNC(=N)N)C(=O)NCC(=O)O)C(C)C` [Compound 162] (H-Y[Aib]EGTFISDYSIALDK[Aib]K([AEEA-AEEA-γGlu-C18 diacid])QADFVEWLLAQRG-OH): the solubility runs as follows: (pH 7.4) ≥ 15 mg/mL; (pH 7.4, aqueous buffer) ≥ 30 mg/mL. Consider `CC[C@H](C)[C@H](NC(=O)[C@H](CO)NC(=O)[C@H](Cc1ccc(O)cc1)NC(=O)[C@H](CC(=O)O)NC(=O)[C@H](CO)NC(=O)[C@@H](NC(=O)[C@H](Cc1ccccc1)NC(=O)[C@@H](NC(=O)CNC(=O)[C@H](CCC(=O)O)NC(=O)C(C)(C)NC(=O)[C@H](Cc1ccc(O)cc1)NC)[C@@H](C)O)[C@@H](C)CC)C(=O)N[C@@H](C)C(=O)N[C@@H](CCCCNC(=O)CNC(=O)CNC(=O)CNC(=O)CNC(=O)CC[C@H](NC(=O)CCCCCCCCCCCCCCCCC(=O)O)C(=O)O)C(=O)N[C@@H](CC(=O)O)C(=O)N[C@@H](CO)C(=O)NC(C)(C)C(=O)N[C@@H](C)C(=O)N[C@@H](CCC(N)=O)C(=O)NC(C)(C)C(=O)N[C@@H](CC(=O)O)C(=O)N[C@@H](Cc1ccccc1)C(=O)N[C@H](C(=O)N[C@@H](CC(N)=O)C(=O)N[C@@H](Cc1c[nH]c2ccccc12)C(=O)N[C@@H](CC(C)C)C(=O)N[C@@H](CC(C)C)C(=O)N[C@@H](C)C(=O)N[C@@H](CCC(N)=O)C(=O)N[C@@H](CCCCN)C(=O)NCC(=O)O)C(C)C` [Compound 79] (H-[NMeY][Aib]EGTFISDYSIAK([Gly-Gly-Gly-Gly-γGlu-C18 diacid])DS[Aib]AQ[Aib]DFVNWLLAQKG-OH), for which the solubility is ≥ 15 mg/mL (pH 7.4) and ≥ 30 mg/mL (pH 7.4, aqueous buffer). As for `CC[C@H](C)[C@H](NC(=O)[C@H](Cc1ccccc1)NC(=O)[C@@H](NC(=O)CNC(=O)[C@H](CCC(=O)O)NC(=O)C(C)(C)NC(=O)[C@H](Cc1ccc(O)cc1)NC)[C@@H](C)O)C(=O)N[C@@H](CO)C(=O)N[C@@H](CC(=O)O)C(=O)N[C@@H](Cc1ccc(O)cc1)C(=O)N[C@@H](CO)C(=O)N[C@H](C(=O)NC(C)(C)C(=O)N[C@@H](CC(C)C)C(=O)N[C@@H](CC(=O)O)C(=O)N[C@@H](CCCNC(=N)N)C(=O)NC(C)(C)C(=O)N[C@@H](C)C(=O)N[C@@H](CCC(N)=O)C(=O)NC(C)(C)C(=O)N[C@@H](CCCCNC(=O)COCCOCCNC(=O)COCCOCCNC(=O)CC[C@H](NC(=O)CC[C@H](NC(=O)CCCCCCCCCCCCCCCCC(=O)O)C(=O)O)C(=O)O)C(=O)N[C@@H](Cc1ccccc1)C(=O)N[C@H](C(=O)N[C@@H](CC(N)=O)C(=O)N[C@@H](Cc1c[nH]c2ccccc12)C(=O)N[C@@H](CC(C)C)C(=O)N[C@@H](CC(C)C)C(=O)N[C@@H](C)C(=O)N[C@@H](CCC(N)=O)C(=O)N[C@@H](CCCNC(=N)N)C(N)=O)C(C)C)[C@@H](C)CC` [Compound 267] (H-[NMeY][Aib]EGTFISDYSI[Aib]LDR[Aib]AQ[Aib]K([AEEA-AEEA-γGlu-γGlu-C18 diacid])FVNWLLAQR-NH2), the solubility (pH 7.4, aqueous buffer) is < 6 mg/mL.

As for `CC[C@H](C)[C@H](NC(=O)[C@H](Cc1ccccc1)NC(=O)[C@@H](NC(=O)CNC(=O)[C@H](CCC(=O)O)NC(=O)C(C)(C)NC(=O)[C@H](Cc1ccc(O)cc1)NC)[C@@H](C)O)C(=O)N[C@@H](CO)C(=O)N[C@@H](CC(=O)O)C(=O)N[C@@H](Cc1ccc(O)cc1)C(=O)N[C@@H](CO)C(=O)N[C@H](C(=O)NC(C)(C)C(=O)N[C@@H](CC(C)C)C(=O)N[C@@H](CC(=O)O)C(=O)N[C@@H](CCCNC(=N)N)C(=O)NC(C)(C)C(=O)N[C@@H](C)C(=O)N[C@@H](C)C(=O)NC(C)(C)C(=O)N[C@@H](CCCCNC(=O)COCCOCCNC(=O)COCCOCCNC(=O)CC[C@H](NC(=O)CC[C@H](NC(=O)CCCCCCCCCCCCCCCCC(=O)O)C(=O)O)C(=O)O)C(=O)N[C@@H](Cc1ccccc1)C(=O)N[C@H](C(=O)N[C@@H](CC(N)=O)C(=O)N[C@@H](Cc1c[nH]c2ccccc12)C(=O)N[C@@H](CC(C)C)C(=O)N[C@@H](CC(C)C)C(=O)N[C@@H](C)C(=O)N[C@@H](CCC(N)=O)C(=O)N[C@@H](CCCNC(=N)N)C(=O)N1CCC[C@H]1C(=O)N[C@@H](CO)C(=O)N[C@@H](CO)C(=O)NCC(=O)N[C@@H](C)C(=O)N1CCC[C@H]1C(=O)N1CCC[C@H]1C(=O)N1CCC[C@H]1C(=O)N[C@@H](CO)C(N)=O)C(C)C)[C@@H](C)CC` [Compound 106] (H-[NMeY][Aib]EGTFISDYSI[Aib]LDR[Aib]AA[Aib]K([AEEA-AEEA-γGlu-γGlu-C18 diacid])FVNWLLAQRPSSGAPPPS-NH2), the solubility runs as follows: (pH 7.4, aqueous buffer, pH 7.4 Phosphate Buffer - Solubility, 200 mM Phosphate buffer pH 7.4) ≥ 30 mg/mL; (pH 7.4, solubility in phosphate buffer at pH 7.4, 200 mM phosphate buffer pH 7.4) ≥ 15 mg/mL. For `CC[C@H](C)[C@H](NC(=O)[C@H](CO)NC(=O)[C@H](Cc1ccc(O)cc1)NC(=O)[C@H](CC(=O)O)NC(=O)[C@H](CO)NC(=O)[C@@H](NC(=O)[C@H](Cc1ccccc1)NC(=O)[C@@H](NC(=O)CNC(=O)[C@H](CCC(=O)O)NC(=O)C(C)(C)NC(=O)[C@H](Cc1ccc(O)cc1)NC)[C@@H](C)O)[C@@H](C)CC)C(=O)N[C@@H](C)C(=O)N[C@@H](CC(C)C)C(=O)N[C@@H](CC(=O)O)C(=O)N[C@@H](CCCNC(=N)N)C(=O)NC(C)(C)C(=O)N[C@@H](CCCCNC(=O)CNC(=O)CNC(=O)[C@@H]1CCCN1C(=O)[C@H](C)NC(=O)[C@@H]1CCCN1C(=O)[C@H](C)NC(=O)[C@@H]1CCCN1C(=O)CC[C@H](NC(=O)CCCCCCCCCCCCCCCCC(=O)O)C(=O)O)C(=O)N[C@@H](CCC(N)=O)C(=O)NC(C)(C)C(=O)N[C@@H](CC(=O)O)C(=O)N[C@@H](Cc1ccccc1)C(=O)N[C@H](C(=O)N[C@@H](CC(N)=O)C(=O)N[C@@H](Cc1c[nH]c2ccccc12)C(=O)N[C@@H](CC(C)C)C(=O)N[C@@H](CC(C)C)C(=O)N[C@@H](C)C(=O)N[C@@H](CCC(N)=O)C(=O)N[C@@H](CO)C(=O)N1CCC[C@H]1C(=O)NCC(=O)O)C(C)C` [Compound 136] (I: H-[NMeY][Aib]EGTFISDYSIALDR[Aib]KQ[Aib]DFVNWLLAQSPG-OH / II: {C18 diacid-γGlu}-PAPAPGG; amide I:18-II:C), the solubility is ≥ 15 mg/mL (pH 7.4) and ≥ 30 mg/mL (pH 7.4, aqueous buffer).
